Results from article PMC8279416, “Structural Fine-Tuning of Desmuramylpeptide NOD2 Agonists Defines Their In Vivo Adjuvant Activity” (Journal of Medicinal Chemistry, 2021).
“And” between values parts separate entries of the source, which are not always exact repeats. Equal values may be shown once.

Target: T1, NOD2 (Homo sapiens, UniProt Q9HC29)
T1 construct: host or cells: HEK-Blue NOD2 cells (HEK293-derived)
Experiment: HEK-Blue NOD2 cell line reporter assay (NF-κB-inducible SEAP)
Format: cell-based
Conditions: for NOD2 activity at 2 μM (fold increase): NF-κB transcriptional (SEAP) activity relative to 0.1% DMSO; for NOD2 activation (in words): compound alone; for Decrease of NOD2 agonistic activity/potency by a factor, relative to 1: ratio of EC50 versus compound 1
Protocol: To determine the NOD2 agonistic potential of the synthesized desmuramylpeptides at the cellular level, we used the validated and commercially available HEK-Blue NOD2 cell line reporter assay. HEK-Blue NOD2 cells were first treated for 18 h with MDP, 1, or the novel desmuramylpeptides at 2 μM. The NF-κB transcriptional activity measured was normalized to that of the vehicle treated (0.1% DMSO) control HEK-Blue NOD2 cells.
HEK-Blue NOD2 and NOD1 cell line reporter assays are derived from HEK293 cells by cotransfection of the hNOD2 or hNOD1 genes, respectively, and an NF-κB-inducible secreted embryonic alkaline phosphatase (SEAP) reporter gene. Following activation of NOD2 or NOD1, the resulting NF-κB induces production of SEAP, the levels of which can be quantified colorimetrically. […] After 18 h of incubation (37 °C, 5% CO2), secreted embryonic alkaline phosphatase (SEAP) activity was determined spectrophotometrically as absorbance at 630 nm (BioTek Synergy microplate reader; Winooski, VT, U.S.A.). EC50 values were calculated using Prism software (version 9; GraphPad Software, CA, U.S.A.). For determination of specificity, HEK-Blue NOD2 cells (2.5 × 10^5 cells/mL) were first pretreated for 1 h with a 10 μM NOD2 antagonist, before the addition of the compounds (2 μM), with incubation for 18 h. SEAP activity in the supernatants was determined as above. The experiments were run in duplicate and repeated as at least two independent biological replicates.

[1] = HEK-Blue NOD2 cells, 18 h, mean ± SEM
[2] = HEK-Blue NOD2 cells, 18 h, 7 or 8 concentrations 1 nM to 20 μM, mean ± SEM

T1 sequence (Q9HC29 whole entry): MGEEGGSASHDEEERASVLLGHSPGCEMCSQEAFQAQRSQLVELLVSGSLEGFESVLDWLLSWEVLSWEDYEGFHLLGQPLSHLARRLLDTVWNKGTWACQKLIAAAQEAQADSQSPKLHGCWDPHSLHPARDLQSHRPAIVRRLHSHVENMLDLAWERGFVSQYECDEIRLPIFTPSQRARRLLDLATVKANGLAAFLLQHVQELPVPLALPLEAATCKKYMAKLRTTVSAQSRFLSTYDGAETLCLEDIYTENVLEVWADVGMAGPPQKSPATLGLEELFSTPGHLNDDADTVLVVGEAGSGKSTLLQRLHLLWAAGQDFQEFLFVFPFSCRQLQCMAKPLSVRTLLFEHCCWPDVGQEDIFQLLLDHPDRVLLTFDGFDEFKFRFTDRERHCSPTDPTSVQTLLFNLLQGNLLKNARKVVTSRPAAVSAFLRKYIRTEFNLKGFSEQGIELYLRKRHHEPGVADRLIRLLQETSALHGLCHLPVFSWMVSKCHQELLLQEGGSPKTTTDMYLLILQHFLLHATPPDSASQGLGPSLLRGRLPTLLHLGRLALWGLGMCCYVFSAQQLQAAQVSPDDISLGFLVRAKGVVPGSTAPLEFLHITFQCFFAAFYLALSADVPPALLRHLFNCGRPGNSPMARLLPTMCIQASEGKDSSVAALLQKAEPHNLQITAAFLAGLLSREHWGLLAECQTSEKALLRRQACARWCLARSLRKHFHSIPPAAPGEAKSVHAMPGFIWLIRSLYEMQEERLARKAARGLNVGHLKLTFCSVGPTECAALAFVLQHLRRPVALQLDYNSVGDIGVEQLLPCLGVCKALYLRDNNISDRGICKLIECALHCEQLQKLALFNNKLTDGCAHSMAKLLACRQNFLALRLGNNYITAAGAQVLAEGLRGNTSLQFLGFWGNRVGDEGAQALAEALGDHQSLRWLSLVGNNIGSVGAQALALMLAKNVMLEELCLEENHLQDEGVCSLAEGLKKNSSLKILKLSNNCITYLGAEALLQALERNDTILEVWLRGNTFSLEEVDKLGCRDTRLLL

Compound | NOD2 activity at 2 μM (fold increase) [1] | EC50 [2] | also measured
CCOC(=O)CC[C@@H](NC(=O)[C@@H](NC(=O)CNC(=O)/C=C/c1ccc(N)cc1)C(C)C)C(=O)OCC [Compound 24, Diethyl ((E)-3-(4-Aminophenyl)acryloyl)glycyl-L-valyl-D-glutamate] | 2.45 ± 0.18 fold increase | 542 ± 48 nM | –
CCCCNC(=O)CC[C@@H](NC(=O)[C@@H](NC(=O)CNC(=O)/C=C/c1ccc(O)c(OC)c1)C(C)C)C(=O)OC(C)(C)C [Compound 59, tert-Butyl N^5-Butyl-N^2-((E)-3-(4-hydroxy-3-methoxyphenyl)acryloyl)glycyl-L-valyl-D-glutaminate] | 1.32 ± 0.05 fold increase | – | –
CCCCCCCCCCCCCCCCCC(=O)Oc1ccc(/C=C/C(=O)NCC(=O)N[C@@H](COCc2ccccc2)C(=O)N[C@H](CCC(=O)OCC)C(=O)OCC)cc1OC [Compound 79, Diethyl O-Benzyl-N-(((E)-3-(3-methoxy-4-(stearoyloxy)phenyl)acryloyl)glycyl)-L-seryl-D-glutamate] | 1.68 fold increase and 1.68 ± 0.03 fold increase | – | –
CONC(=O)CC[C@@H](NC(=O)[C@@H](NC(=O)CNC(=O)/C=C/c1ccc(O)c(OC)c1)C(C)C)C(=O)OC(C)(C)C [Compound 60, tert-Butyl N^2-((E)-3-(4-Hydroxy-3-methoxyphenyl)acryloyl)glycyl-L-valyl-N^5-methoxy-D-glutaminate] | 1.32 ± 0.02 fold increase | – | –
COc1cc(/C=C/C(=O)NCC(=O)N[C@H](C(=O)N[C@H](CCC(=O)OC2CCCC2)C(=O)OC2CCCC2)C(C)C)ccc1OC(C)=O [Compound 76, Dicyclopentyl ((E)-3-(4-Acetoxy-3-methoxyphenyl)acryloyl)glycyl-L-valyl-D-glutamate] | 2.67 ± 0.25 fold increase | 63 ± 0.2 nM | –
CCCCCCCCCCCC(=O)O [lauric acid, reference compound] | – | – | NOD2 activation (in words) (HEK-Blue NOD2 cells): did not show any NOD2 activation alone; Enhancement of the NOD2 agonistic activity of 1 (HEK-Blue NOD2 cells, in combination with 1, data not shown): did not enhance the NOD2 agonistic activity of 1
CCCCCCCCCCCCCCCCCC(=O)Oc1ccc(/C=C/C(=O)NCC(=O)N[C@H](C(=O)N[C@H](CCC(=O)OC2CCCC2)C(=O)OC2CCCC2)C(C)C)cc1OC [Compound 78, Dicyclopentyl ((E)-3-(3-Methoxy-4-(stearoyloxy)phenyl)acryloyl)glycyl-L-valyl-D-glutamate] | 1.66 ± 0.11 fold increase | 6160 ± 1160 nM | EC50 (HEK-Blue NOD2 cells): 6160 nM
COc1cc(/C=C/C(=O)NCC(=O)N[C@H](C(=O)N[C@H](CCC(=O)OC(C)(C)C)C(=O)N(C)OC)C(C)C)ccc1O [Compound 63, tert-Butyl (R)-4-((S)-2-(2-((E)-3-(4-Hydroxy-3-methoxyphenyl)acrylamido)acetamido)-3-methylbutanamido)-5-(methoxy(methyl)amino)-5-oxopentanoate] | 1.36 ± 0.05 fold increase | – | –
CCOC(=O)CC[C@@H](NC(=O)[C@H](COCc1ccccc1)NC(=O)CNC(=O)/C=C/c1ccc(O)c(OC)c1)C(=O)OCC [Compound 30, Diethyl O-Benzyl-N-(((E)-3-(4-hydroxy-3-methoxyphenyl)acryloyl)glycyl)-L-seryl-D-glutamate] | 2.04 fold increase and 2.04 ± 0.02 fold increase | 5560 ± 1470 nM | EC50 (HEK-Blue NOD2 cells): 5560 nM
CCOC(=O)CC[C@@H](NC(=O)[C@@H](NC(=O)CNC(=O)/C=C/c1ccc(C(C)C)cc1)C(C)C)C(=O)OCC [Compound 25, Diethyl ((E)-3-(4-Isopropylphenyl)acryloyl)glycyl-L-valyl-D-glutamate] | 2.83 ± 0.06 fold increase | 71 ± 4 nM | –
CCOC(=O)CC[C@@H](NC(=O)[C@@H](NC(=O)CNC(=O)CCCc1ccc(O)c(OC)c1)C(C)C)C(=O)OCC [Compound 19, Diethyl (4-(4-Hydroxy-3-methoxyphenyl)butanoyl)glycyl-L-valyl-D-glutamate] | 1.73 ± 0.01 fold increase | 13900 ± 800 nM | Decrease of NOD2 agonistic activity/potency by a factor, relative to 1: 156
CCOC(=O)CC[C@@H](NC(=O)[C@@H](NC(=O)CNC(=O)/C=C/c1ccc(O)c(OC)c1)[C@@H](C)O)C(=O)OCC [Compound 32, Diethyl ((E)-3-(4-Hydroxy-3-methoxyphenyl)acryloyl)glycyl-L-threonyl-D-glutamate] | 1.54 ± 0.02 fold increase | 12500 ± 1220 nM | –
CCCCCCCCCCCCCCCCCC(=O)NCCCC[C@H](NC(=O)CC[C@@H](NC(=O)[C@@H](NC(=O)CNC(=O)/C=C/c1ccc(O)c(OC)c1)C(C)C)C(=O)OCC)C(=O)OC [Compound 82, Methyl N^2-((R)-5-Ethoxy-4-((S)-2-(2-((E)-3-(4-hydroxy-3-methoxyphenyl)acrylamido)acetamido)-3-methylbutanamido)-5-oxopentanoyl)-N^6-stearoyl-L-lysinate] | 2.00 ± 0.03 fold increase | 11500 ± 3910 nM | EC50 (HEK-Blue NOD2 cells): 11500 nM
CCNC(=O)CC[C@@H](NC(=O)[C@@H](NC(=O)CNC(=O)/C=C/c1ccc(O)c(OC)c1)C(C)C)C(=O)NCC [Compound 57, (R)-N^1,N^5-Diethyl-2-((S)-2-(2-((E)-3-(4-hydroxy-3-methoxyphenyl)acrylamido)acetamido)-3-methylbutanamido)pentanediamide] | 1.45 ± 0.05 fold increase | – | NOD2 activation (in words) (HEK-Blue NOD2 cells): substantially diminished activity
CCOC(=O)CC[C@@H](NC(=O)[C@H](CO)NC(=O)CNC(=O)/C=C/c1ccc(O)c(OC)c1)C(=O)OCC [Compound 31, Diethyl ((E)-3-(4-Hydroxy-3-methoxyphenyl)acryloyl)glycyl-L-seryl-D-glutamate] | 1.21 fold increase and 1.21 ± 0.08 fold increase | > 20000 nM | –
CCOC(=O)CC[C@@H](NC(=O)[C@@H](NC(=O)CNC(=O)/C=C/c1ccc(OC)c(OC)c1)C(C)C)C(=O)OCC [Compound 20, Diethyl ((E)-3-(3,4-Dimethoxyphenyl)acryloyl)glycyl-L-valyl-D-glutamate] | 2.64 ± 0.01 fold increase | 763 ± 88 nM | –
CCCCCCCCCCCCCCCCCC(=O)Oc1ccc(/C=C/C(=O)NCC(=O)N[C@@H](CO)C(=O)N[C@H](CCC(=O)OCC)C(=O)OCC)cc1OC [Compound 80, Diethyl ((E)-3-(3-Methoxy-4-(stearoyloxy)phenyl)acryloyl)glycyl-L-seryl-D-glutamate] | 1.21 fold increase and 1.21 ± 0.06 fold increase | – | –

Continued, in another order:

NOD2 activity at 2 μM (fold increase) [1] | EC50 [2] | Compound | also measured
1.43 ± 0.01 fold increase | – | COc1cc(/C=C/C(=O)NCC(=O)N[C@H](C(=O)N[C@H](CCC(=O)N2CCCC2)C(=O)OC(C)(C)C)C(C)C)ccc1O [Compound 62, tert-Butyl (R)-2-((S)-2-(2-((E)-3-(4-Hydroxy-3-methoxyphenyl)acrylamido)acetamido)-3-methylbutanamido)-5-oxo-5-(pyrrolidin-1-yl)pentanoate] | –
2.63 ± 0.15 fold increase | 322 ± 7 nM | CCOC(=O)CC[C@@H](NC(=O)[C@@H](NC(=O)CNC(=O)C1CC1c1ccc(OC)c(OC)c1)C(C)C)C(=O)OCC (stereo partly drawn) [Compound 27, Diethyl (2-(3,4-Dimethoxyphenyl)cyclopropane-1-carbonyl)glycyl-L-valyl-D-glutamate] | Improved potency over 20 (ratio of EC50 versus compound 20): 2.4 fold
2.46 ± 0.12 fold increase | 66 ± 5 nM | CCOC(=O)CC[C@@H](NC(=O)[C@@H](NC(=O)CNC(=O)[C@H]1C[C@@H]1c1ccc(F)c(F)c1)C(C)C)C(=O)OCC [Compound 29a] | –
2.71 ± 0.05 fold increase | 39 ± 1 nM | CCOC(=O)CC[C@@H](NC(=O)[C@@H](NC(=O)CNC(=O)[C@@H]1C[C@H]1c1ccc(F)c(F)c1)C(C)C)C(=O)OCC [Compound 29b] | –
2.56 ± 0.12 fold increase | 243 ± 50 nM | CCCCCCCCCCCC(=O)Oc1ccc(/C=C/C(=O)NCC(=O)N[C@H](C(=O)N[C@H](CCC(=O)OC2CCCC2)C(=O)OC2CCCC2)C(C)C)cc1OC [Compound 77, Dicyclopentyl ((E)-3-(4-(Dodecanoyloxy)-3-methoxyphenyl)acryloyl)glycyl-L-valyl-D-glutamate] | –
1.33 ± 0.03 fold increase | – | COc1cc(/C=C/C(=O)NCC(=O)N[C@H](C(=O)N[C@H](CCC(=O)N(C)OC)C(=O)OC(C)(C)C)C(C)C)ccc1O [Compound 61, tert-Butyl N^2-((E)-3-(4-Hydroxy-3-methoxyphenyl)acryloyl)glycyl-L-valyl-N^5-methoxy-N^5-methyl-D-glutaminate] | –
2.66 ± 0.07 fold increase | 369 ± 4 nM | CCOC(=O)CC[C@@H](NC(=O)[C@@H](NC(=O)CNC(=O)C1CC1c1ccc(O)c(OC)c1)C(C)C)C(=O)OCC (stereo partly drawn) [Compound 28, Diethyl (2-(4-Hydroxy-3-methoxyphenyl)cyclopropane-1-carbonyl)glycyl-L-valyl-D-glutamate] | Decrease of NOD2 agonistic activity/potency by a factor, relative to 1: 4
